Data reported in US20250387375A1, “SOFALCONE DERIVATIVES AND MEDICAL USE THEREOF” (KAOHSIUNG MEDICAL UNIVERSITY, priority 2024, published 2025).

Legend:
[1] = biological target: T1, human recombinant COX1 (Homo sapiens, UniProt P23219); assay: COX1 enzyme activity assay; assay type: biochemical
T1 construct: purchased Cayman Chemical Company
Experimental: (§1) COX1 and COX2 enzyme activities were analyzed by using a human COX inhibitor screening assay kit (Cayman Chemical Company). After allowing the to-be-tested compound, human recombinant COX1 or COX2 enzyme and heme to stand at 37° C. for 15 minutes, AA (10 μM) was added to react for 2 minutes. Then, stannous chloride was added to reduce PGH2, the product of the above COX reaction, to PGF2α. Finally, the PGF2α level in the sample was measured by using enzyme immunoassay, and the inhibition percentage was calculated.

[2] = system: human platelet suspension (platelet aggregation caused by collagen); assay: Platelet aggregation reaction test, collagen-induced; assay type: cell-based; details: read-out: Collagen IC 50
Experimental: (§2) Blood samples were collected from healthy donors, and acid-citrate-dextrose (ACD) solution was used as an anticoagulant. The blood samples were centrifuged to obtain platelets, and residual plasma was removed by washing to prepare platelet suspension.
(§3) In the experimental method, a platelet aggregometer (Chrono-Log Co., Havertown, PA, USA) was used for tests. The compound to be tested was added to the platelet suspension and reacted for 3 minutes at 37° C. with stirring (1200 rpm). Then, platelet stimulator U46619 or collagen was added to initiate platelet aggregation, and the test time was 5 minutes. The principle of the platelet aggregation test was: when platelets were stimulated to induce aggregation reaction, the light transmission of the platelet suspension would increase; by calculating changes in light transmission of the platelet suspension before and after being stimulated, the percentage of platelet aggregation could be obtained.

[3] = system: human platelet suspension (platelet aggregation caused by TxA2 agonist U46619); assay: Platelet aggregation reaction test, U46619-induced; assay type: cell-based
Experimental: as §2, §3

[4] = system: FeCl3-induced carotid artery thrombosis; assay: Ferric chloride-induced carotid artery thrombosis in mice; assay type: in vivo, BALB/c mice; details: oral gavage
Experimental: Mice were orally administered by gavage with sofalcone (SFC, once daily for 4 days), derivative 17, or aspirin (ASA) (single administration only). The mice are then treated with ferric chloride solution to induce carotid artery thrombosis, and an ultrasound imaging system was used to monitor the time required for the thrombus to block the carotid artery (occlusion time). Data are presented as mean±standard […] error of the mean (n≥6). Compared with the control group, *P<0.05, ***P<0.001. In this experiment, a ferric chloride-induced arterial injury was used to evaluate the antithrombotic effect of the to-be-tested compound. The to-be-tested compound was orally administered by gavage to BALB/c mice aged approximately 6-8 weeks. Then, the mice were anesthetized with isoflurane, the right carotid artery was exposed through surgery, and filter paper (2×4 mm^2) containing 8.5% ferric chloride was attached to the right carotid artery for 3 minutes. After removing the filter paper, remaining ferric chloride was wiped off with cotton balls soaked with physiological saline, and an ultrasonic imaging system (VEVO 2100 system, VisualSonics) equipped with a Doppler flow probe (MS400, 18-38 MHz) was used to monitor the blood flow of the right carotid artery. The occlusion time was determined when the blood flow completely stopped for at least 1 minute. If the occlusion time was longer than 30 minutes, it was considered the end point of the experiment.

[5] = system: TxB2 formation in human platelet suspensions; assay: Measurement of platelet TxB2 level after arachidonic acid; assay type: cell-based; details: AA 100 μM; human platelet suspension
Experimental: (§4) FIGS. 6A and 6B show the effect of sofalcone and its derivatives on TxB2 and PGE2 productions induced by arachidonic acid (AA). […] After human platelet suspension was pretreated with dimethyl sulfoxide (DMSO) or sofalcone (SFC), sofalcone derivative 3, and sofalcone derivative 30, arachidonic acid (100 μM) was added to stimulate the productions of arachidonic acid metabolites TxB2 and PGE2. Data are presented as mean±standard error of the mean (n>5). Compared with the control group, *P<0.05, **P<0.01, ***P<0.001. ASA: Aspirin.
as §2
(§5) The compound to be tested was added to the platelet suspension and reacted for 3 minutes at 37° C. under stirring (1200 rpm), then arachidonic acid (AA) (100 μM) was added to react for 4 minutes, and finally EDTA (5 mM) was added to terminate the reaction. The above sample was centrifuged at 13,000 rpm for 1 minute at 4° C. and the supernatant was collected. The concentrations of TxB2 and PGE2 in the supernatant were measured respectively using enzyme immunoassay kits (TxB2 ELISA kit and PGE2 ELISA kit; Cayman Chemical Company).

[6] = system: PGE2 formation in human platelet suspensions; assay: Measurement of platelet PGE2 level after arachidonic acid; assay type: cell-based; details: AA 100 μM; human platelet suspension
Experimental: as §4, §2, §5

[7] = system: normal hemostatic function (tail bleeding); assay: Mouse bleeding test (tail bleeding time); assay type: in vivo, BALB/c mice
Experimental: Mice were orally administered by gavage with sofalcone (SFC, once daily for 4 days), derivative 17, or aspirin (ASA) (single administration only). Then the mouse's tail was transected and the tail bleeding time was recorded. Data are presented as mean±standard error of the mean (n≥6). Compared with the control group, ***P<0.001. n.s.: No significant difference. In the present invention, the effect of the to-be-tested compound on normal hemostasis was evaluated by docking off the tail ends of the mice to cause bleeding. The to-be-tested compound was orally administered to BALB/c mice aged approximately 6-8 weeks by gavage. Then, the mice were anesthetized with isoflurane, and 2 mm of the distal end of their tails were excised. The tails of the mice were immersed in physiological saline at 37° C., and the bleeding time was observed. The determination of bleeding time was: the time required from the time the mouse tail was cut off until the bleeding completely stopped.

[8] = biological target: T2, TxA2 receptor (Homo sapiens, UniProt P21731); assay: Competitive antagonism of U46619-induced platelet aggregation (U46619 concentration-response curves); assay type: cell-based; details: for mode of action at TxA2 receptor: concluded from parallel right shift of U46619 curves; for U46619 concentration-platelet aggregation response curve / maximum level of platelet aggregation: U46619 0.1-10 μM
T2 construct: The blood samples were centrifuged to obtain platelets, and residual plasma was removed by washing to prepare platelet suspension; endogenous in cells; host or cells: washed human platelets from healthy donors
T2 sequence (P21731 1-343): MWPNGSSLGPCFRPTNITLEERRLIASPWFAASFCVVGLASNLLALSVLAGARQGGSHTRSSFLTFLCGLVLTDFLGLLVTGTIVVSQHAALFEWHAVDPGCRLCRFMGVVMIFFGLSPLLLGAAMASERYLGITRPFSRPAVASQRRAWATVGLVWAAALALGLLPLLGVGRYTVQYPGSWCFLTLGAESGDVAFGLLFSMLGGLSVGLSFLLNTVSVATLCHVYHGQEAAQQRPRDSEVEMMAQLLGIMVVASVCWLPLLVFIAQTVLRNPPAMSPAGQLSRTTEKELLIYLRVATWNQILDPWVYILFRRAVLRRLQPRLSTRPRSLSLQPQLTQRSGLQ
Experimental: After human platelet suspension was pretreated with dimethyl sulfoxide (DMSO) or sofalcone (SFC) (FIG. 5A), sofalcone derivative 3 (FIG. 5B), and sofalcone derivative 30 (FIG. 5C), different concentrations of U46619 (0.1-10 μM) were added to stimulate platelet aggregation reaction. Data are presented as mean±standard error of the mean (n=5).
as §2, §3
After pretreating human platelet suspensions with dimethylsulfoxide (DMSO), sofalcone (20 μM and 50 μM), and sofalcone derivatives 3 or 30 (0.2 μM and 0.5 μM, respectively), different concentrations of U46619 (0.1-10 μM) were added to stimulate platelet aggregation.

[9] = biological target: T3, human recombinant COX2 (Homo sapiens, UniProt P35354); assay: COX2 enzyme activity assay; assay type: biochemical
T3 construct: purchased Cayman Chemical Company
T3 sequence (P35354 18-604): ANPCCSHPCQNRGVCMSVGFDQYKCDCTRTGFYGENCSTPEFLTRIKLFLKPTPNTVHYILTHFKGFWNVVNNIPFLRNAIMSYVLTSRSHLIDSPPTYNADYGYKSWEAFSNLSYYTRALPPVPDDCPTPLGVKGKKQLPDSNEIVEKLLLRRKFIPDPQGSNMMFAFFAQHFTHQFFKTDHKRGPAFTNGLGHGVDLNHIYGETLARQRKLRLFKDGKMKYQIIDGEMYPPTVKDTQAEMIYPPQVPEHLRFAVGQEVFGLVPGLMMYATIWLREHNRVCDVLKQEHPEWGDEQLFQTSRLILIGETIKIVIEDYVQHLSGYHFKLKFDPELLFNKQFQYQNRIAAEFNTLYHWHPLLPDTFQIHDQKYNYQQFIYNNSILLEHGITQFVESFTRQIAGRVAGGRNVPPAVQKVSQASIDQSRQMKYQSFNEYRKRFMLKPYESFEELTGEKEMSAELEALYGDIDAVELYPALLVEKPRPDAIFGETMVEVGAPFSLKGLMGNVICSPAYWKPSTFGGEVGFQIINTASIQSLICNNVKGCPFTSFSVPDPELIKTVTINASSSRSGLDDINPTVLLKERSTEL
Experimental: as §1

T1 sequence (P23219 24-599): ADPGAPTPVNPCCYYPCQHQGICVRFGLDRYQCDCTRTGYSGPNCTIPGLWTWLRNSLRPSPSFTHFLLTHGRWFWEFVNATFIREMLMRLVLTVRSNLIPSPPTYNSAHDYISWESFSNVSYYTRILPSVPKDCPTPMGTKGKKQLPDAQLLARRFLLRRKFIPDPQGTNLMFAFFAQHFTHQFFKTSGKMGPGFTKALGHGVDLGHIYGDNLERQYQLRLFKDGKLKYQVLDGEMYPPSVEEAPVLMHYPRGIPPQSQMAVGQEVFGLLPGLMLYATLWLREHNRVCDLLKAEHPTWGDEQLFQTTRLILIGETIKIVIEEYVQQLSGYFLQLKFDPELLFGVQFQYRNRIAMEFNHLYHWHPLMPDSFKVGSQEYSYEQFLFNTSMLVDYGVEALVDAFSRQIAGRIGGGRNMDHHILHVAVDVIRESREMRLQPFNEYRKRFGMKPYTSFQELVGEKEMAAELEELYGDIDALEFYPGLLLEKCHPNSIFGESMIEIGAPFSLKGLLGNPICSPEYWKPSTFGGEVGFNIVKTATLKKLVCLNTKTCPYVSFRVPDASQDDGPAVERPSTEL

SMILES	IC50 [2] [nM]	IC50 [3] [nM]	carotid artery occlusion time ([4]; single dose 25 mg/kg)	formation of TxB2 induced by arachidonic acid [5]	formation of PGE2 induced by arachidonic acid [6]	mode of action at TxA2 receptor [8]	U46619 concentration-platelet aggregation response curve ([8]; pretreatment 0.2 μM and 0.5 μM)	maximum level of platelet aggregation ([8]; pretreatment 0.2 μM and 0.5 μM)	also measured
CC(=O)Oc1ccccc1C(=O)O [Aspirin, reference compound]	79000	> 200000	prolonged	inhibited	inhibited	–	–	–	inhibition at 200 µM ([1]; read-out: COX1 (Inhibition rate %)): 26%; tail bleeding time ([7]; mice, oral gavage, single dose 25 mg/kg): significantly prolonged
O=C(O)CCCOc1ccccc1C(=O)/C=C/c1ccc(F)cc1 [Compound 3]	30	70	–	inhibited	inhibited	competitively antagonize	shifted parallelly to the right	not significantly affected	COX1 (Inhibition rate %) ([1]; 1 μM): 19.1%; COX1 (Inhibition rate %) ([1]; 10 μM): 61.6%; COX1 (Inhibition rate %) ([1]; 100 μM): 89.8%; COX1 versus COX2 inhibitory effect ([1]; human recombinant COX1 and COX2, 1-100 μM): better inhibitory effect on COX1; COX2 (Inhibition rate %) ([9]; 10 μM): 26.7%; COX2 (Inhibition rate %) ([9]; 100 μM): 48.6%
CC(C)=CCOc1ccc(/C=C/C(=O)c2ccc(OCC=C(C)C)cc2OCCCC(=O)[O-])cc1.[K+] [Compound 17]	320	40	significantly prolonged	–	–	–	–	–	carotid artery occlusion time ([4]; single dose 10 mg/kg): significantly prolonged; tail bleeding time ([7]; mouse, in vivo, po, 10 mg/kg): did not affect; tail bleeding time ([7]; mouse, in vivo, po, 25 mg/kg): did not affect
CC(C)=CCOc1ccc(/C=C/C(=O)c2ccc(OCC=C(C)C)cc2OCCCC(=O)O)cc1 [Compound 30]	380	40	–	did not inhibit	did not inhibit	competitively antagonize	shifted parallelly to the right	not significantly affected	–
CC(C)=CCOc1ccc(/C=C/C(=O)c2ccc(OCC=C(C)C)cc2OCC(=O)O)cc1 [SFC, sofalcone]	49000	16000	–	did not inhibit	did not inhibit	competitively antagonize	–	–	U46619 concentration-platelet aggregation response curve ([8]; pretreatment 20 μM and 50 μM): shifted parallelly to the right; maximum level of platelet aggregation ([8]; pretreatment 20 μM and 50 μM): not significantly affected; carotid artery occlusion time ([4]; 50 mg/kg per day for 4 days): significantly prolonged; tail bleeding time ([7]; mice, oral gavage, 50 mg/kg per day for 4 days): did not affect
